Test results: patent US20190307818A1, “NOVEL ANTIMICROBIAL COMPOSITIONS AND METHODS OF USE” (priority 2016, published 2019)

Assays:
Type in all cases: cell-based, P. aeruginosa
LasR = molecular target: T1, LasR (Pseudomonas aeruginosa, UniProt P25084); assay: Two plasmid E. coli LasR reporter (luciferase); conditions: read-out: Percent Activity (LasR reporter)
T1 construct: expressed in transfected cells; host or cells: E. coli TOP10 carrying pBAD-A 6xHIS-lasR and pCS26 plasB-luxCDABE
Description: (§1) A two plasmid E. coli reporter system was constructed, in which LasR or RhlR was expressed under an arabinose inducible promoter (e.g., LasR or RhlR was cloned into a pBAD-A vector and expressed upon addition of arabinose) in the presence of a LasR-dependent or RhlR-dependent promoter fused to luciferase (e.g., cloned into a pCS26 vector). Upon the addition of arabinose and in the presence of AI, LasR or RhlR were expressed, formed a complex with the cognate AI, underwent dimerization, and activated transcription of the reporter construct. All potential inhibitors were tested at 100 μM. The percent activity was reported relative to wild-type (100%).
(§2) A sample experimental protocol for the RhlR reporter (see, e.g., Table 5A2) or for the LasR reporter (see, e.g., Table 5A1).
(§3) A clean plate was filled with water, 70% ethanol, LB, and primed with cultured cells to ensure that initial dispensing led to the appropriate volume of cells being added to the wells. 20 μL of this solution was dispensed into appropriate wells in a 384-well plate that contained small molecule antagonists. 20 μL of this solution was dispensed into wells intended for a positive control that contain only DMSO. To the culture that was saved for negative control, arabinose was added to 0.1%. An equal volume of DMSO was added to the culture, relative to the amount of AI added to the other culture. 20 μL of culture was dispensed into wells intended for a negative control that contained only DMSO and no small molecule QS inhibitors. Plates were incubated at 30° C. in the plate shaker. Plates were read using a 384 LUM/OD 600 setting on the plate reader after 4 hours of induction.
For data analysis, the average and standard deviation for each of the control groups were determined. In a screen, for each data point, the number of standard deviations from the mean was determined to determine if the inhibitor was a “hit”. In a dose response curve, for each data point, the percent inhibition was determined: 1−(X/M), where X=single data point and M=is the mean of the AI only control group. The dose response curve was then plotted as a function of % inhibition (y) v. [inhibitor] on a log scale (x).

RhlR = molecular target: T2, RhlR (Pseudomonas aeruginosa, UniProt P54292); assay: Two plasmid E. coli RhlR reporter (luciferase); conditions: read-out: Percent Activity (RhlR reporter)
T2 construct: expressed in transfected cells; host or cells: E. coli TOP10 carrying pBAD-A 6xHIS-rhlR and pCS26 prhlA-luxCDABE
T2 sequence (P54292 whole entry): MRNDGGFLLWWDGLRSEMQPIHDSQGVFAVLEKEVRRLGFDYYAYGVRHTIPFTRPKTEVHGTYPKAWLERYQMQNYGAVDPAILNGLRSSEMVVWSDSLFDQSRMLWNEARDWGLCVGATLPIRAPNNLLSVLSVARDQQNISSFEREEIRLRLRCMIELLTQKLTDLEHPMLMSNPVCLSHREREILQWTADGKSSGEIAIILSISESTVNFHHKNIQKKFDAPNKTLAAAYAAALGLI
Description: as §1, §2
For the RhlR reporter, strains were re-streaked on LB+appropriate antibiotic before each experiment and grown overnight at 37° C. Three colonies were picked and a 3 mL overnight culture in LB+appropriate antibiotic was started. The culture was grown overnight at 37° C. The overnight culture was back-diluted 1:1000 into fresh LB+appropriate antibiotic in an appropriate volume, depending on the number of plates being screened. Each well in a 384 well plate received about 20 μL of culture. An additional 25 mL of culture was reserved for priming the plate filler. The culture was grown at 37° C. until OD600˜0.5, which took about 4 hrs. A 384-well plate was prepared. Stock concentrations of molecules (e.g., small molecule inhibitors) were 10 mM.
For a 10-point dose response for the RhlR reporter, a 1:3 dilution of molecule:DMSO (333 μL of stock molecule, 667 μL of DMSO using a 1 mL pipetteman) was used for accurate dispensing by the robot dispenser. Upon a prompt by the software, the appropriate concentration of each molecule was added. Each well was normalized with a DMSO standard to bring the total % volume of DMSO up to 1% using the robot. Plates were set aside with dispensed drugs until the cells were ready. Once the cells reached an OD600 of 0.5, an appropriate amount of cell culture was dispensed for screening into an Erlenmeyer flask. (Extra culture was saved for a negative control.) Arabinose was added to 0.1% final concentration (1:1000 dilution from stock solution), and AI was added to 10 μM (ED75) from a 10 mM stock. The components of the flask were mixed together by swirling. As mentioned previously, other concentrations of AIs may be suitable, e.g., the concentrations may be in the range of 2 uM to 100 uM, from 10 uM to 100 uM or from 2 uM to 10 uM. In some embodiments, 2 nM of 3-O—C12-HSL (for LasR) and 10 uM of C4-HSL (for RhlR) were used.
as §3
For data analysis, the average and standard deviation for each of the control groups were determined. In a screen, for each data point, the number of standard deviations from the mean was determined to determine if the inhibitor was a “hit”. In a dose response curve, for each data point, the percent inhibition was determined: 1−(X/M), where X=single data point and M=is the mean of the AI only control group. […]

LasR and RhlR = assay: Receptor specific reporter assays for LasR and RhlR activity (stated in words)
Description: wherein R may be H or OH, and two or more of the R substituents of a given compound are OH; R′ is H or OH; and R″ is H or OH. […] A variety of compounds were obtained and tested for activity (e.g., inhibition of receptor specific reporter assays for LasR and RhlR activity).
as §1

T1 sequence (P25084 whole entry): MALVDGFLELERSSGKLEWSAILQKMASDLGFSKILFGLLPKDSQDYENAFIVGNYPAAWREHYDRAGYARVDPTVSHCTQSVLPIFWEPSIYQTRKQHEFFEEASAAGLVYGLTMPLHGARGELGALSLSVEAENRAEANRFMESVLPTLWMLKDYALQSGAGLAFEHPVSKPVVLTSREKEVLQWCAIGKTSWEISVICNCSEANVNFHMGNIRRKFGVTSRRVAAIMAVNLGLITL

## O=c1cc(-c2ccccc2)oc2cc(O)c(O)c(O)c12 [Molecule 46, Baicalein]
LasR
  remaining activity at 100 µM: 46.7%
RhlR
  remaining activity at 100 µM: 57.4%
LasR and RhlR
  activity (inhibition of receptor specific reporter assays for LasR and RhlR activity): inhibit both LasR and RhlR
